How the values were obtained:
[1] = Fluorescence (emission) measurements; assay type: physicochemical;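 further: fluorescence emission spectra recorded on a spectrofluorometer, with each compound excited at its own absorption maximum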
Experimental: The fluorescence spectrum of each derivative (150 μL) was measured on a Photon Technology International (PTI) QuantaMaster™ 40 fluorescence spectrometer by excitation at the maximum absorption wavelength for each compound.
The fluorescence spectrum of each derivative (150 μL) was measured on a Photon Technology International (PTJ) QuantaMaster™ 40 fluorescence spectrometer by excitation at the maximum absorption wavelength for each compound.

[2] = Molar absorptivity determination; assay type: physicochemical;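 further: molar absorptivity derived from UV-Vis absorbance spectra recorded for each derivative on a spectrometer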
Experimental: The absorbance spectrum of each derivative (150 μL) was measured on a Thermo Scientific Genesys 150 UV-Vis spectrometer, using 50:50 ACN/PBS as a blank.
Molar absorptivity determination. […] The absorbance spectrum of each derivative (150 μL) was measured on a Thermo Scientific Genesys 150 UV-Vis spectrometer, using 50:50 ACN/PBS as a blank.

[3] = Fluorescent quantum yield (QY) measurements; assay type: physicochemical; conditions: for Fluorescence QY: ACN/PBS buffer (1:1 v/v); for Fluorescence quantum yield: in ACN
Experimental: For each QY measurement, the incident excitation light spectrum was collected with 1 mL of solvent. […] Using the JASCO Quantum Yield Software, the dye QY was calculated by dividing the dye fluorescence intensity by the difference in incident light intensity in the presence and absence of dye. The minimum excitation wavelength for a full excitation incident spectrum using this setup is 360 nm.
Fluorescent quantum yield (QY) measurements. For each QY measurement, the incident excitation light spectrum was collected with 1 mL of solvent. After measuring the incident light intensity, dye (3 and 5a-5k) was added to the solvent from a concentrated stock solution to a final concentration of […] and the new spectrum (fluorescence intensity and new incident light intensity) was collected. Using the JASCO Quantum Yield Software, the dye QY was calculated by dividing the dye fluorescence intensity by the difference in incident light intensity in the presence and absence of dye. The minimum excitation wavelength for a full excitation incident spectrum using this setup is 360 nm.

[4] = Absorbance measurements (UV-Vis); conditions: for Abs. λabs: 25 μM; for Absorbance Wavelength: ACN:PBS buffer (50:50 v/v)
Experimental: Samples were individually diluted to the final concentration of 25 μM (500 μL) using 50:50 acetonitrile in phosphate buffered saline (ACN/PBS). The absorbance spectrum of each derivative (150 μL) was measured on a Thermo Scientific Genesys 150 UV-Vis spectrometer, using 50:50 ACN/PBS as a blank.

[5] = Fluorescence lifetime measurements (TCSPC); assay type: physicochemical; conditions: for Fluorescence Lifetime: ACN/PBS buffer (1:1 v/v); for Lifetime: ACN/PBS buffer (50:50 v/v), excitation 340 nm
Experimental: Time correlated single photon counting (TCSPC) measurements of fluorescence lifetime decays for 100 μM solutions of dyes (6, 7c, 7e, 7f, and 7g) in ACN/PBS buffer (50:50 v/v) were collected with the PTI Quantamaster™ 40 using a pulsed LED with a maximum emission at 340 nm. Fluorescence emission was collected at the indicated wavelength for each dye with 20 nm slit widths. The instrument response function (IRF) was collected under identical conditions. Data analysis was performed with FluoFit software (PicoQuant GmbH; Berlin, Germany) using an exponential decay model.
Fluorescence lifetime measurements. Time correlated single photon counting (TCSPC) measurements of fluorescence lifetime decays for 100 μM solutions of dyes (3 and 5c-f) in ACN/PBS buffer (50:50 v/v) were collected with the PTI Quantamaster™ 40 using a pulsed LED with a maximum emission at 340 nm. Fluorescence emission was collected at the indicated wavelength for each dye with 20 nm slit widths. The instrument response function ([…]) was collected under identical conditions. Data analysis was performed with FluoFit software (PicoQuant GmbH; Berlin, Germany) using an exponential decay model. […] FIG. 64D Fluorescence spectra of 5i-5k. […] Fluorescence spectra were measured at their maximum absorption wavelength. FIGS. 66A-66K show representative QY acquisitions of 3 and 5a-f, 5h-k in ACN/PBS buffer (50:50). All had consistent excitation (360 nm) and spectral collection (350-800 nm) parameters. Final concentration of the probe is 500 μM. Black line indicates incident light and blue line indicates sample spectrum. […] All had consistent excitation (360 nm, slit width 10 nm) and spectral collection (350-800 nm) parameters. Final concentration of the probe is 500 µM. Black line indicates incident light and blue line indicates sample spectrum. FIG. 68: Effect of pH on absorption and emission of 5h and 5j. […] For pH screening of 5h and 5j, PBS buffer solutions were prepared, then adjusted the pH 2, 4, and 7 by adding 6 M hydrochloric acid, pH 9 and 11 by adding 5 M sodium hydroxide. Emission spectra were measured by the excitation wavelength 354 nm for 5h and 385 nm for 5j. […] Lifetime measurements with exponential fits shown at left and residuals after fitting shown at right.

[6] = 25 μM in ACN/PBS buffer (1:1 v/v), pH 7.4
[7] = ACN/PBS buffer (1:1 v/v), pH 7.4
[8] = in ACN, at maximum absorption wavelength

Row | SMILES | Stokes shift ([1]; ACN only) [nm] | Stokes shift ([1]; ACN:PBS (50:50 v/v)) [nm] | ε ([2]; ACN only) [M⁻¹ cm⁻¹] | ε ([2]; ACN:PBS (50:50 v/v)) [M⁻¹ cm⁻¹] | Q.Y. ([3]; ACN only) [%] | Q.Y. ([3]; ACN:PBS (50:50 v/v)) [%] | Abs. λabs ([4]; ACN only) [nm] | Abs. λabs ([4]; ACN:PBS (50:50 v/v)) [nm] | Emission λmax [1, 6] [nm] | Stokes shift ([1]; ACN/PBS buffer (1:1 v/v)) [nm] | Stokes shift ([1]; in ACN) [nm] | Molar Absorptivity (ε) [2, 7] [M⁻¹ cm⁻¹] | Molar Absorptivity (ε) [2, 8] [M⁻¹ cm⁻¹] | Fluorescence QY [3] [%] | Fluorescence quantum yield [3] [%] | Fluorescence quantum yield ([3]; Table S12) [%] | Absorbance λmax ([4]; 25 μM in ACN) [nm] | Absorbance λmax [4, 6] [nm] | Absorbance Wavelength ([4]; Table 11) [nm] | Absorbance Wavelength ([4]; Table S14) [nm] | other results
1 | Cc1ccc(/C=C/c2c(C)c(=O)n3c(=O)c(C)c(C)n23)cc1 [Compound 7f, (E)-2,3,6-trimethyl-5-(4-methylstyryl)-1H,7H-pyrazolo[1,2-a]pyrazole-1,7-dione] |  |  |  |  |  |  |  |  | 503 | 171 | 165 | 21164 | 24426 | 3.0 | 3.4 | 3.4 | 325 | 332 | 332 | 332 | Fluorescence Lifetime [5]: 1.28 ns; Lifetime ([5]; Table 4): 1.28 ± 0.004 ns; Lifetime ([5]; Table S13): 1.28 ± 0.004 ns
2 | Cc1c(C)n2c(/C=C/c3ccc([N+](=O)[O-])cc3)c(C)c(=O)n2c1=O [Compound 7a, (E)-2,3,6-trimethyl-5-(4-nitrostyryl)-1H,7H-pyrazolo[1,2-a]pyrazole-1,7-dione] |  |  |  |  |  |  |  |  | 468 | 133 | 100 | 36955 | 37871 | 0.1 | 0.2 | 0.2 | 332 | 335 | 335 | 335 | Emission λmax ([1]; 25 μM in ACN): 432 nm; Emission λem ([1]; 25 μM in ACN, Table S12): 432 nm; fluorescence quantum yield (QY) ([3]; in ACN/PBS): essentially non-fluorescent; λabs ([4]; ACN/PBS): 335 nm
3 | Cc1c(C)n2c(/C=C/c3ccc(F)cc3)c(C)c(=O)n2c1=O [Compound 7c, (E)-3-(4-fluorostyryl)-2,5,6-trimethyl-1H,7H-pyrazolo[1,2-a]pyrazole-1,7-dione] |  |  |  |  |  |  |  |  | 502 | 181 | 177 | 23796 | 28940 | 2.5 | 2.8 | 2.8 | 315 | 321 | 321 | 321 | Fluorescence Lifetime [5]: 1.07 ns; Lifetime ([5]; Table 4): 1.07 ± 0.003 ns; Lifetime ([5]; Table S13): 1.07 ± 0.003 ns
4 | Cc1c(C)n2c(/C=C/c3ccc(NC(=O)OC(C)(C)C)cc3)c(C)c(=O)n2c1=O [Compound 7i, tert-butyl (E)-(4-(2-(2,5,6-trimethyl-1,7-dioxo-1H,7H-pyrazolo[1,2-a]pyrazol-3-yl)vinyl)phenyl)carbamate] |  |  |  |  |  |  |  |  | 505 | 149 | 142 | 34826 | 37555 | 3.4 | 3.4 | 3.4 | 348 | 356 | 354 |  | maximum emission wavelength (λem) ([1]; 50:50 ACN/PBS, excitation at λabs): 583 nm
5 | Cc1c(C)n2c(/C=C/c3ccc(N=[N+]=[N-])cc3)c(C)c(=O)n2c1=O [Compound 7d, (E)-3-(4-azidostyryl)-2,5,6-trimethyl-1H,7H-pyrazolo[1,2-a]pyrazole-1,7-dione] |  |  |  |  |  |  |  |  | 502 | 152 | 101 | 27699 | 36055 | 1.3 | 1.5 |  | 339 | 350 |  |  | 
6 | COc1ccc(/C=C/c2c(C)c(=O)n3c(=O)c(C)c(C)n23)cc1 [Compound 7g, (E)-3-(4-methoxystyryl)-2,5,6-trimethyl-1H,7H-pyrazolo[1,2-a]pyrazole-1,7-dione] |  |  |  |  |  |  |  |  | 504 | 156 | 146 | 25659 | 34554 | 3.3 | 3.5 | 3.5 | 342 | 348 |  | 348 | Fluorescence Lifetime [5]: 1.31 ns; Lifetime ([5]; Table 4): 1.31 ± 0.004 ns; Lifetime ([5]; Table S13): 1.31 ± 0.004 ns

Now from value to compound, other results behind:

Row | Stokes shift ([1]; ACN only) [nm] | Stokes shift ([1]; ACN:PBS (50:50 v/v)) [nm] | ε ([2]; ACN only) [M⁻¹ cm⁻¹] | ε ([2]; ACN:PBS (50:50 v/v)) [M⁻¹ cm⁻¹] | Q.Y. ([3]; ACN only) [%] | Q.Y. ([3]; ACN:PBS (50:50 v/v)) [%] | Abs. λabs ([4]; ACN only) [nm] | Abs. λabs ([4]; ACN:PBS (50:50 v/v)) [nm] | Emission λmax [1, 6] [nm] | Stokes shift ([1]; ACN/PBS buffer (1:1 v/v)) [nm] | Stokes shift ([1]; in ACN) [nm] | Molar Absorptivity (ε) [2, 7] [M⁻¹ cm⁻¹] | Molar Absorptivity (ε) [2, 8] [M⁻¹ cm⁻¹] | Fluorescence QY [3] [%] | Fluorescence quantum yield [3] [%] | Fluorescence quantum yield ([3]; Table S12) [%] | Absorbance λmax ([4]; 25 μM in ACN) [nm] | Absorbance λmax [4, 6] [nm] | Absorbance Wavelength ([4]; Table 11) [nm] | Absorbance Wavelength ([4]; Table S14) [nm] | SMILES | other results
7 | 229 | 99 | 26667 | 27587 | 0.1 | 0.06 | 346 | 349 |  |  |  |  |  |  |  |  |  |  |  |  | Cc1c(C)n2c(/C=C/c3nc4ccc([N+](=O)[O-])cc4s3)c(C)c(=O)n2c1=O [Compound 8a, (E)-2,3,6-trimethyl-5-(2-(6-nitrobenzo[d]thiazol-2-yl)vinyl)-1H,7H-pyrazolo[1,2-a]pyrazole-1,7-dione] | Em. λem ([1]; ACN:PBS (50:50 v/v), 25 μM): 448 nm
8 | 163 | 157 | 22961 | 22575 | 0.54 | 0.27 | 367 | 373 |  |  |  |  |  |  |  |  |  |  |  |  | COc1ccc2nc(/C=C/c3c(C)c(=O)n4c(=O)c(C)c(C)n34)sc2c1 [Compound 8d, (E)-3-(2-(6-methoxybenzo[d]thiazol-2-yl)vinyl)-2,5,6-trimethyl-1H,7H-pyrazolo[1,2-a]pyrazole-1,7-dione] | 
9 | 162 | 159 | 21094 | 20460 | 0.52 | 0.26 | 369 | 375 |  |  |  |  |  |  |  |  |  |  |  |  | Cc1c(C)n2c(/C=C/c3nc4ccc(O)cc4s3)c(C)c(=O)n2c1=O [Compound 8e, (E)-3-(2-(6-hydroxybenzo[d]thiazol-2-yl)vinyl)-2,5,6-trimethyl-1H,7H-pyrazolo[1,2-a]pyrazole-1,7-dione] | 
10 | 195 | 192 | 29974 | 29304 | 0.4 | 0.16 | 339 | 344 |  |  |  |  |  |  |  |  |  |  |  |  | Cc1c(C)n2c(/C=C/c3nc4ccccc4s3)c(C)c(=O)n2c1=O [Compound 8c, (E)-3-(2-(benzo[d]thiazol-2-yl)vinyl)-2,5,6-trimethyl-1H,7H-pyrazolo[1,2-a]pyrazole-1,7-dione] | 
11 | 192 | 185 | 32612 | 31088 | 0.56 | 0.21 | 340 | 345 |  |  |  |  |  |  |  |  |  |  |  |  | Cc1c(C)n2c(/C=C/c3nc4ccc(F)cc4s3)c(C)c(=O)n2c1=O [Compound 8b, (E)-3-(2-(6-fluorobenzo[d]thiazol-2-yl)vinyl)-2,5,6-trimethyl-1H,7H-pyrazolo[1,2-a]pyrazole-1,7-dione] | 

Source: patent US20240336617A1, “Substituted Bimane Compounds and Methods of Use Thereof” (THE TRUSTEES OF THE UNIVERSITY OF PENNSYLVANIA, priority 2023, published 2024)
